Assay results from ChEMBL document CHEMBL5625252, “Synthesis of peptidomimetics as antibiotic adjuvants for combination with aztreonam to combat MDR Pseudomonas aeruginosa” (Eur J Med Chem, 2023).
Converted amounts (≈) assume the structure as drawn. The source made the active and inactive calls. The rule behind the calls is not given here. Where a SMILES comes first, the peptide text is derived from it. The star is where a group is joined. βNA = c1ccc2cc(N*)ccc2c1

Experiments:
[1] = test system: Pseudomonas aeruginosa; assay: Antibacterial activity against Pseudomonas aeruginosa 12-1 in CAMH broth medium supplemented with 20.99 to 21.09 mM Mg2+ by checkerboard assay; format: functional
[2] = test system: Pseudomonas aeruginosa; assay: Antibacterial activity against Pseudomonas aeruginosa 13-17 assessed as inhibition of bacterial growth incubated for 18 hrs by agar dilution method; format: functional
[3] = test system: Pseudomonas aeruginosa; assay: Synergistic antibacterial activity against Pseudomonas aeruginosa 16-11 assessed as aztreonam MIC in CAMH broth medium supplemented with 0.41 to 0.51 mM Mg2+ by checkerboard assay; format: functional
[4] = test system: Pseudomonas aeruginosa; assay: Synergistic antibacterial activity against Pseudomonas aeruginosa 13-17 assessed as aztreonam MIC at 128 ug/ml incubated for 18 hrs by checkerboard method; format: functional; conditions: dose 128 µg/ml
[5] = test system: Pseudomonas aeruginosa; assay: Antibacterial activity against Pseudomonas aeruginosa 21-8 assessed as inhibition of bacterial growth incubated for 18 hrs by agar dilution method; format: functional
[6] = test system: Pseudomonas aeruginosa; assay: Synergistic antibacterial activity against Pseudomonas aeruginosa 16-11 assessed as fractional inhibitory concentration index in CAMH broth medium supplemented with 20.99 to 21.09 mM Mg2+ in presence of aztreonam by checkerboard assay; format: functional
[7] = test system: Pseudomonas aeruginosa; assay: Antibacterial activity against Pseudomonas aeruginosa 19-46 assessed as inhibition of bacterial growth incubated for 18 hrs by agar dilution method; format: functional
[8] = test system: Pseudomonas aeruginosa; assay: Antibacterial activity against Pseudomonas aeruginosa 21-7 assessed as inhibition of bacterial growth incubated for 18 hrs by agar dilution method; format: functional
[9] = test system: Pseudomonas aeruginosa; assay: Synergistic antibacterial activity against Pseudomonas aeruginosa PAO1 assessed as aztreonam MIC at 64 ug/ml incubated for 18 hrs by checkerboard method (reference value: 8 microg/ml); format: functional; conditions: dose 64 µg/ml
[10] = test system: Pseudomonas aeruginosa; assay: Synergistic antibacterial activity against Pseudomonas aeruginosa 13-35 in CAMH broth medium supplemented with 20.99 to 21.09 mM Mg2+ in presence of aztreonam by checkerboard assay; format: functional
[11] = test system: Pseudomonas aeruginosa; assay: Antibacterial activity against Pseudomonas aeruginosa PAO1 in CAMH broth medium supplemented with 0.41 to 0.51 mM Mg2+ by checkerboard assay; format: functional
[12] = test system: Pseudomonas aeruginosa; assay: Synergistic antibacterial activity against Pseudomonas aeruginosa 23-Y122 assessed as aztreonam MIC at 128 ug/ml incubated for 18 hrs by checkerboard method; format: functional; conditions: dose 128 µg/ml
[13] = test system: Pseudomonas aeruginosa; assay: Antibacterial activity against Pseudomonas aeruginosa 23-Y122 assessed as inhibition of bacterial growth incubated for 18 hrs by agar dilution method; format: functional
[14] = test system: Pseudomonas aeruginosa; assay: Synergistic antibacterial activity against Pseudomonas aeruginosa 23-Y372 assessed as aztreonam MIC at 128 ug/ml incubated for 18 hrs by checkerboard method; format: functional; conditions: dose 128 µg/ml
[15] = test system: Pseudomonas aeruginosa; assay: Synergistic antibacterial activity against Pseudomonas aeruginosa 21-2 assessed as fractional inhibitory concentration index at 128 ug/ml incubated for 18 hrs in presence of aztreonam by checkerboard method; format: functional; conditions: dose 128 µg/ml
[16] = test system: Pseudomonas aeruginosa; assay: Antibacterial activity against Pseudomonas aeruginosa 13-3 assessed as inhibition of bacterial growth incubated for 18 hrs by agar dilution method; format: functional
[17] = test system: Pseudomonas aeruginosa; assay: Synergistic antibacterial activity against Pseudomonas aeruginosa 12-1 assessed as aztreonam MIC in CAMH broth medium supplemented with 20.99 to 21.09 mM Mg2+ by checkerboard assay; format: functional
[18] = test system: Pseudomonas aeruginosa; assay: Synergistic antibacterial activity against Pseudomonas aeruginosa 13-35 assessed as aztreonam MIC in CAMH broth medium supplemented with 0.41 to 0.51 mM Mg2+ by checkerboard assay; format: functional
[19] = test system: Pseudomonas aeruginosa; assay: Synergistic antibacterial activity against Pseudomonas aeruginosa 23-Y364 assessed as aztreonam MIC at 128 ug/ml incubated for 18 hrs by checkerboard method; format: functional; conditions: dose 128 µg/ml
[20] = test system: Pseudomonas aeruginosa; assay: Synergistic antibacterial activity against Pseudomonas aeruginosa PAO1 assessed as fractional inhibitory concentration index in CAMH broth medium supplemented with 0.41 to 0.51 mM Mg2+ in presence of aztreonam by checkerboard assay; format: functional
[21] = test system: Pseudomonas aeruginosa; assay: Synergistic antibacterial activity against Pseudomonas aeruginosa 23-Y372 assessed as fractional inhibitory concentration index at 128 ug/ml incubated for 18 hrs in presence of aztreonam by checkerboard method; format: functional; conditions: dose 128 µg/ml
[22] = test system: Pseudomonas aeruginosa; assay: Antibacterial activity against Pseudomonas aeruginosa 16-2 at 128 ug/ml measured upto 24 hrs in presence of aztreonam by time-kill assay; format: functional, organism-based; conditions: dose 128.0 µg/ml
[23] = test system: Pseudomonas aeruginosa; assay: Synergistic antibacterial activity against Pseudomonas aeruginosa 23-Y511 assessed as fractional inhibitory concentration index at 128 ug/ml incubated for 18 hrs in presence of aztreonam by checkerboard method; format: functional; conditions: dose 128 µg/ml
[24] = test system: Pseudomonas aeruginosa; assay: Synergistic antibacterial activity against Pseudomonas aeruginosa 13-35 assessed as fractional inhibitory concentration index at 128 ug/ml incubated for 18 hrs in presence of aztreonam by checkerboard method; format: functional; conditions: dose 128 µg/ml
[25] = test system: Pseudomonas aeruginosa; assay: Antibacterial activity against Pseudomonas aeruginosa PAO1 infected in Galleria mellonella assessed as increase in larvae survival at 100 mg/kg after 12 hrs of innoculation; format: functional, organism-based
[26] = test system: Pseudomonas aeruginosa; assay: Antibacterial activity against Pseudomonas aeruginosa K854 overexpressing MexAB-OprM assessed as fractional inhibitory concentration index upto 128 ug/ml incubated for 18 hrs in presence of aztreonam by checkerboard method; format: functional; conditions: dose <= 128 µg/ml
[27] = test system: Pseudomonas aeruginosa; assay: Synergistic antibacterial activity against Pseudomonas aeruginosa PAO1 assessed as fractional inhibitory concentration index at 128 ug/ml incubated for 18 hrs in presence of aztreonam by checkerboard method; format: functional; conditions: dose 128 µg/ml
[28] = test system: Pseudomonas aeruginosa; assay: Inhibition of Pseudomonas aeruginosa 26 MexAB-OprM assessed as accumulation of Hoechst […] at 64 ug/ml; conditions: dose 64.0 µg/ml
[29] = test system: Pseudomonas aeruginosa; assay: Antibacterial activity against Pseudomonas aeruginosa PAO1 infected in Galleria mellonella assessed as increase in larvae survival at 100 mg/kg measured after 96 hrs post inoculation in presence of 25 mg/kg aztreonam; format: functional
[30] = test system: Pseudomonas aeruginosa; assay: Synergistic antibacterial activity against Pseudomonas aeruginosa 13-35 assessed as fractional inhibitory concentration index in CAMH broth medium supplemented with 20.99 to 21.09 mM Mg2+ in presence of aztreonam by checkerboard assay; format: functional
[31] = test system: Pseudomonas aeruginosa; assay: Synergistic antibacterial activity against Pseudomonas aeruginosa 19-46 assessed as fractional inhibitory concentration index at 128 ug/ml incubated for 18 hrs in presence of aztreonam by checkerboard method; format: functional; conditions: dose 128 µg/ml
[32] = test system: Pseudomonas aeruginosa; assay: Antibacterial activity against Pseudomonas aeruginosa 12-1 assessed as inhibition of bacterial growth incubated for 18 hrs by agar dilution method; format: functional
[33] = test system: Pseudomonas aeruginosa; assay: Antibacterial activity against Pseudomonas aeruginosa 23-Y511 assessed as inhibition of bacterial growth incubated for 18 hrs by agar dilution method; format: functional
[34] = test system: Pseudomonas aeruginosa; assay: Synergistic antibacterial activity against Pseudomonas aeruginosa 13-35 assessed as fractional inhibitory concentration index in CAMH broth medium supplemented with 0.41 to 0.51 mM Mg2+ in presence of aztreonam by checkerboard assay; format: functional
[35] = test system: Pseudomonas aeruginosa; assay: Synergistic antibacterial activity against Pseudomonas aeruginosa 16-2 assessed as aztreonam MIC at 128 ug/ml incubated for 18 hrs by checkerboard method; format: functional; conditions: dose 128 µg/ml
[36] = test system: Pseudomonas aeruginosa; assay: Synergistic antibacterial activity against Pseudomonas aeruginosa 23-Y539 assessed as aztreonam MIC at 128 ug/ml incubated for 18 hrs by checkerboard method; format: functional; conditions: dose 128 µg/ml
[37] = test system: Pseudomonas aeruginosa; assay: Synergistic antibacterial activity against Pseudomonas aeruginosa PAO1 assessed as aztreonam MIC at 128 ug/ml incubated for 18 hrs by checkerboard method; format: functional; conditions: dose 128 µg/ml
[38] = test system: Pseudomonas aeruginosa; assay: Antibacterial activity against Pseudomonas aeruginosa 16-11 assessed as inhibition of bacterial growth incubated for 18 hrs by agar dilution method; format: functional

## NCCC[C@H](NC(=O)C[C@@H](N)Cc1ccccc1)C(=O)Nc1ccc2ccccc2c1
[1]
  MIC: 512 µg/mL
[2]
  MIC: 512 µg/mL (≈ 1220 µM)
[3]
  MIC: 2 µg/mL
[4]
  MIC: 4 µg/mL
[5]
  MIC: > 512 µg/mL
[6]
  fractional inhibitory concentration index (FICI): 1.25
[7]
  MIC: 512 µg/mL (≈ 1220 µM)
[8]
  MIC: 512 µg/mL (≈ 1220 µM)
[9]
  MIC: 2 µg/mL
[10]
  MIC: 128 µg/mL
[11]
  MIC: 512 µg/mL
[12]
  MIC: 32 µg/mL
[13]
  MIC: 512 µg/mL (≈ 1220 µM)
[14]
  MIC: 4 µg/mL
[15]
  fractional inhibitory concentration index (FICI): <0.5
[16]
  MIC: 512 µg/mL (≈ 1220 µM)
[17]
  MIC: 64 µg/mL
[18]
  MIC: 4 µg/mL
[19]
  MIC: 8 µg/mL
[20]
  fractional inhibitory concentration index (FICI): 0.5
[21]
  fractional inhibitory concentration index (FICI): 0.375
[22]
  Activity: Active
[23]
  fractional inhibitory concentration index (FICI): 1
[24]
  fractional inhibitory concentration index (FICI): 0.375
[25]
  Activity: inactive
[26]
  fractional inhibitory concentration index (FICI): <0.5
[27]
  fractional inhibitory concentration index (FICI): 0.5
[28]
  inhibition: Active
[29]
  Activity: 40%
[30]
  fractional inhibitory concentration index (FICI): 0.5
[31]
  fractional inhibitory concentration index (FICI): 0.375
[32]
  MIC: 512 µg/mL (≈ 1220 µM)
[33]
  MIC: 256 µg/mL (≈ 612 µM)
[34]
  fractional inhibitory concentration index (FICI): 0.5
[35]
  MIC: 16 µg/mL
[36]
  MIC: 4 µg/mL
[37]
  MIC: 2 µg/mL
[38]
  MIC: 512 µg/mL (≈ 1220 µM)

## N=C(N)NCCC[C@H](NC(=O)[C@@H](N)Cc1ccccc1)C(=O)Nc1ccc2ccccc2c1 [PABETAN] (H-Phe-Arg-βNA)
[1]
  MIC: 512 µg/mL
[5]
  MIC: 512 µg/mL (≈ 1150 µM)
[6]
  fractional inhibitory concentration index (FICI): 1.25
[9]
  MIC: 2 µg/mL
[10]
  MIC: 128 µg/mL
[11]
  MIC: 512 µg/mL
[12]
  MIC: 16 µg/mL
[15]
  fractional inhibitory concentration index (FICI): 0.5
[20]
  fractional inhibitory concentration index (FICI): 0.5
[21]
  fractional inhibitory concentration index (FICI): 0.375
[23]
  fractional inhibitory concentration index (FICI): 1
[24]
  fractional inhibitory concentration index (FICI): 0.375
[26]
  fractional inhibitory concentration index (FICI): <0.75
[27]
  fractional inhibitory concentration index (FICI): 0.5
[30]
  fractional inhibitory concentration index (FICI): 0.375
[31]
  fractional inhibitory concentration index (FICI): 0.375
[34]
  fractional inhibitory concentration index (FICI): 0.5
